ChEMBL document CHEMBL1128925, “Novel inhibitors of cell adhesion molecule expression” (Bioorg Med Chem Lett, 1996)

How the values were obtained:
HUVEC [1] = assay: Compound was evaluated for inhibition of expression of VCAM-1 in IL-1 beta activated human umbilical vein endothelial cells(HUVECs) by using ELISA; format: functional, cell-based
HUVEC [2] = assay: Compound was evaluated for inhibition of expression of ELAM-1 in IL-1 beta activated human umbilical vein endothelial cells(HUVECs) by using ELISA; format: functional, cell-based
Mus musculus = species on record: Mus musculus; assay: Compound was evaluated for inhibition of neutrophil recruitment in a mouse skin immune complex model.; format: functional; design: concentration or dose not given beside the values
HUVEC [3] = assay: Compound was evaluated for inhibition of expression of VCAM-1 in IL-1 beta activated human umbilical vein endothelial cells(HUVECs) by using ELISA at 30 uM; format: functional
HUVEC [4] = assay: Compound was evaluated for inhibition of expression of ELAM-1 in IL-1 beta activated human umbilical vein endothelial cells(HUVECs) by using ELISA at 30 uM; format: functional

| Compound | IC50 (HUVEC [1]) | IC50 (HUVEC [2]) | Inhibition (Mus musculus) | inhibition at 30 µM (HUVEC [3]) | inhibition at 30 µM (HUVEC [4]) |
| --- | --- | --- | --- | --- | --- |
| COc1c(C)cnc(C[S+]([O-])c2nnc(-c3ccccc3O)o2)c1C (configuration not stated) | 8 µM | 10 µM | 20% |  |  |
| COc1ccnc2c1CCCCC2[S+]([O-])c1nnc(C)o1 (configuration not stated) |  |  |  | 0% | 0% |
| COc1c(C)cnc(C[S+]([O-])c2nnc(-c3cccs3)o2)c1C (configuration not stated) | 3 µM | 5 µM |  |  |  |
| COc1c(C)cnc(C[S+]([O-])c2nnc(-c3ccccc3)o2)c1C (configuration not stated) | 6 µM | 7 µM | 25% |  |  |
| COc1c(C)cnc(C[S+]([O-])c2nnc(-c3ccc(F)cc3)o2)c1C (configuration not stated) | 11 µM | 14 µM |  |  |  |
| CCc1nnc([S+]([O-])Cc2ncc(C)c(OC)c2C)o1 (configuration not stated) | 10 µM | 12 µM |  |  |  |
| CCCCc1nnc([S+]([O-])Cc2ncc(C)c(OC)c2C)o1 (configuration not stated) |  |  |  | 85% | 60% |
| COc1c(C)cnc(C[S+]([O-])c2nnc(C)o2)c1C (configuration not stated) | 8 µM | 10 µM | 55% |  |  |
| Cc1nnc([S+]([O-])Cc2ccccn2)o1 (configuration not stated) |  |  | 40% | 80% | 60% |
| COc1c(C)cnc(C[S+]([O-])c2nnc(-c3cccn3C)o2)c1C (configuration not stated) | 4 µM | 6 µM |  |  |  |
| [O-][S+](Cc1ccccc1)c1nnc(-c2ccccc2O)o1 (configuration not stated) | 6 µM | 8 µM |  |  |  |
| [O-][S+](Cc1ccccc1)c1nnc(-c2cccs2)o1 (configuration not stated) | 6 µM | 7 µM | 40% |  |  |
| COc1c(C)cnc(C[S+]([O-])c2nnc(-c3ccc(C(F)(F)F)cc3)o2)c1C (configuration not stated) |  |  |  | 70% | 50% |
| [O-][S+](Cc1ccccc1)c1nnc(-c2cccnc2)o1 (configuration not stated) | 6 µM | 8 µM | 50% |  |  |
| [O-][S+](Cc1ccccc1)c1nnc(-c2ccccn2)o1 (configuration not stated) | 4 µM | 5 µM | 80% |  |  |
| [O-][S+](Cc1ccccc1)c1nnc(-c2ccncc2)o1 (configuration not stated) | 3 µM | 4 µM | 55% |  |  |
| Cc1nnc([S+]([O-])c2c(C)cccc2C)o1 (configuration not stated) |  |  |  | 0% | 0% |
| CCCc1nnc([S+]([O-])Cc2ncc(C)c(OC)c2C)o1 (configuration not stated) | 8 µM | 10 µM |  |  |  |
| COc1c(C)cnc(C[S+]([O-])c2nnc(-c3cccc(C(F)(F)F)c3)o2)c1C (configuration not stated) |  |  |  | 85% | 70% |
| CCCCCc1nnc([S+]([O-])Cc2ncc(C)c(OC)c2C)o1 (configuration not stated) |  |  |  | 70% | 45% |
| Cc1nnc([S+]([O-])Cc2ccccc2)o1 (configuration not stated) |  |  |  | 35% | 20% |
| COc1c(C)cnc(C[S+]([O-])c2nnc(-c3cccc(F)c3)o2)c1C (configuration not stated) | 12 µM | 15 µM |  |  |  |
